Here are results for 1 molecule from patent publication US11667621B2, “Antiestrogen compounds” (STEVENS INSTITUTE OF TECHNOLOGY, priority 2018, dated 2023).

Common to all, as to type: cell-based
Test [1] addresses T1, CRISPR KI D538G (Homo sapiens, UniProt P03372, D538G).
T1 construct: endogenous in cells; host or cells: CRISPR knock-in clones (cl. 50, cl. 65)
T1 sequence (P03372 1-595 D538G): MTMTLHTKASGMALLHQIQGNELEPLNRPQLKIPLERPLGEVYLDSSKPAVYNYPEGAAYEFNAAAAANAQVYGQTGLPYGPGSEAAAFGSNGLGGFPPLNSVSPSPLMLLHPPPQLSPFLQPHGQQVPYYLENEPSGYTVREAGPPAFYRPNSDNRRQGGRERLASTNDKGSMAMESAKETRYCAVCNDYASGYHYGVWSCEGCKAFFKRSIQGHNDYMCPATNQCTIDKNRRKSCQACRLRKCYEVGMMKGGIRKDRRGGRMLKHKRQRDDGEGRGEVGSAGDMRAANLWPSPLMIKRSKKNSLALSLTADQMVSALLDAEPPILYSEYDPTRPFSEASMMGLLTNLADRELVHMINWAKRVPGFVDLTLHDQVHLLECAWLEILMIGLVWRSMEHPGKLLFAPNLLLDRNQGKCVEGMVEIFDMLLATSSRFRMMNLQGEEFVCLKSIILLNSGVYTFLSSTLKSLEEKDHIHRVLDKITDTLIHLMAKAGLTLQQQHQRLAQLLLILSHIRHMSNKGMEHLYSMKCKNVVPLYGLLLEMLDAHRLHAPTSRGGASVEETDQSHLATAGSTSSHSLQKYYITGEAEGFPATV
Description: Luciferase assay, CRISPR KI D538G clones. The procedure: Luciferase assays were performed to determine the efficacy of the example compounds at inhibiting ER or its mutants' ability to activate transcription of genes.
Cells were plated at a density of 0.15×10^6 per well of 24 well plates one day prior to transfection. Cells were transfected with 125 ng (per well) of HA-ERα wild type or mutants, 315 ng (per well) of 3×-ERE-TATA-Luciferase reporter and 50 ng (per well) of pRL-TK Renilla Luciferase plasmid, using Xtremegene (Roche). The cells were treated with the various compounds or Fulvestrant at the indicated doses a day after transfection for 24 hours and luciferase activities were determined using the Dual-Luciferase® Reporter Assay System (Promega) according to manufacturer's instructions. Luciferase bioluminescence measurements were performed with the Veritas™ Microplate Luminometer (Promega). All experiments were conducted in triplicate and the Firefly luciferase activity was normalized with the Renilla luciferase activity of each sample.

Test [2] has as its target T2, HA-ERα D538G (Homo sapiens, UniProt P03372, D538G).
T2 construct: HA; expressed in transfected cells
T2 sequence (P03372 1-595 D538G): T1 sequence (P03372 1-595 D538G)
Briefly: Luciferase assay, overexpressed ER (3×-ERE-TATA-Luciferase reporter). The conditions noted are these: compound concentration 1 μM, 24 hours. Put shortly: (§1)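 Cells transfected with HA-ERα wild type or mutant, 3×-ERE-TATA firefly luciferase reporter and pRL-TK Renilla, then treated one day later with compound for 24 h.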
A general note: A reporter such as luciferase makes a cellular process visible.

Test [3] has as its target T3, HA-ERα Y537S (Homo sapiens, UniProt P03372, Y537S).
T3 construct: HA; expressed in transfected cells
T3 sequence (P03372 1-595 Y537S): T1 sequence (P03372 1-595 D538G) with Y537S, G538D
The test is described as above. The following applies: compound concentration 1 μM, 24 hours. Put shortly: as §1

The target in test [4] is T4, HA-ERα wild type (Homo sapiens, UniProt P03372).
T4 construct: HA; expressed in transfected cells
T4 sequence (P03372 1-595): T1 sequence (P03372 1-595 D538G) with G538D
Described as above. The conditions noted are these: compound concentration 1 μM, 24 hours; read-out: Overexpressed ER (% Inhibition) WT. Put shortly:
as §1

Test [5] concerns the target T5, HA-ERα L536R (Homo sapiens, UniProt P03372, L536R).
T5 construct: HA; expressed in transfected cells
T5 sequence (P03372 1-595 L536R): T1 sequence (P03372 1-595 D538G) with L536R, G538D
Described as above. The conditions noted are these: compound concentration 1 μM, 24 hours. An outline of the steps: as §1

Where a chain is given by its changes, count along the chain named.

Broadly, the inhibition is the percentage by which the read-out fell short of the control. As to `O=C(NCCCCOc1ccc(C(=C2C3CC4CC(C3)CC2C4)c2ccc(O)cc2)cc1)[C@H]1C[C@@H]2C=C[C@H]1C2` [Example 9, (1R, 2S, 4R)—N-(4-(4-(Adamantan-2-ylidene(4-hydroxyphenyl)methyl)phenoxy)-butyl)bicyclo[2.2.1]hept-5-ene-2-carboxamide], the “CRISPR KI (% Inhibition) D538G cl. 50” value in test [1] (clone 50) is 34%. Moreover, the “CRISPR KI (% Inhibition) D538G cl. 65” value in test [1] (clone 65) turned out to be 72%. In addition, the inhibition at 1 µM in test [2] was found to be 92%; in test [3] it was 33%; in test [4], 88%; in test [5] it was 89%.
